Patent US8106055B2, “Substituted amide compounds” (Gruenenthal GmbH, priority 2007, dated 2012)

Assays:
[1] = biological target: T1, bradykinin 1 receptor (B1R) of the rat (Rattus norvegicus, UniProt P97583); assay: Functional investigation on the rat bradykinin 1 receptor (B1R), Ca2+ FLIPR assay in CHO K1 rB1R cells; format: cell-based; settings: CHO-K1, B1R antagonism rat; test substance 10 μM; Ca2+ FLIPR, CHO K1 rB1R cells; read-out: B1R Ant. r [10 μM] % Inhibition
T1 construct: expressed in transfected cells; host or cells: CHO K1 cells
T1 sequence (P97583 1-337): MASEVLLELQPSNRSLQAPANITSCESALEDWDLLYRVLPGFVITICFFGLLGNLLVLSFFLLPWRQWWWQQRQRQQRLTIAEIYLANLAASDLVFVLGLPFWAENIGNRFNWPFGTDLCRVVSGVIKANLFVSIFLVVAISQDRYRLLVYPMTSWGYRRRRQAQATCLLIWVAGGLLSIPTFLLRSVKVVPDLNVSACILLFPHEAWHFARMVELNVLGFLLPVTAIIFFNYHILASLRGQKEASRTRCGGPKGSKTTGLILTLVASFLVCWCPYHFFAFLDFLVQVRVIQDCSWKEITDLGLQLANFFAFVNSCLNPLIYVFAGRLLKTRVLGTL
Procedure, shortened: (§1)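 Stably transfected CHO K1 cells loaded with Fluo-4; FLIPR Ca2+ fluorescence peak (ex 488/em 540 nm). Compound added first (agonism vs Lys-Des-Arg9-bradykinin ≥50 nM human, Des-Arg9-bradykinin 10 μM rat), then after 10-20 min agonist at EC80; antagonism as % inhibition, IC50 from concentration series, n=2-3, N≥2.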

[2] = biological target: T2, human bradykinin 1 receptor (B1R) (Homo sapiens, UniProt P46663); assay: Functional investigation on the human bradykinin 1 receptor (B1R), Ca2+ FLIPR assay in CHO K1 hB1R cells; format: cell-based; settings: CHO-K1, B1R antagonism human; test substance 10 μM; Ca2+ FLIPR, CHO K1 hB1R cells; read-out: B1R Ant. h [10 μM] % Inhibition
T2 construct: expressed in transfected cells; host or cells: CHO K1 cells
T2 sequence (P46663 1-353): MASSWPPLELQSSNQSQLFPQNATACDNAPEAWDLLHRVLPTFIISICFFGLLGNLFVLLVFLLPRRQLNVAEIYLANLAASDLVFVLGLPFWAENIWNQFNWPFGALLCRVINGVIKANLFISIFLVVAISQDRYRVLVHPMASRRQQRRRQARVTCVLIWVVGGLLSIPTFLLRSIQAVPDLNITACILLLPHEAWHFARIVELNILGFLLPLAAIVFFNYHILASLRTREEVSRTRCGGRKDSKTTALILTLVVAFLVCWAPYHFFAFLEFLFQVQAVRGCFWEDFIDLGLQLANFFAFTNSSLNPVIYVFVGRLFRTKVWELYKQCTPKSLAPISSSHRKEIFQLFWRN
Procedure, shortened: as §1

| SMILES | inhibition at 10 µM [1] [%] | inhibition at 10 µM [2] [%] |
| --- | --- | --- |
| COc1ccc(S(=O)(=O)N2CCCCC2COCC(=O)NCC2CCC(C(c3cccs3)N(C)C)CC2)c(OC)c1 (centres unmarked) [Example 49, 2-((1-(2,4-dimethoxyphenylsulfonyl)piperidin-2-yl)methoxy)-N-((4-((dimethylamino)(thiophen-2-yl)methyl)cyclohexyl)methyl)acetamide] | 23 | 2 |
| CN(C)C(c1ccccc1)C1CCC(CNC(=O)COC2CCCCC2N(C)S(=O)(=O)c2ccc(Cl)c(Cl)c2)CC1 (centres unmarked) [Example 78, 2-(2-(3,4-dichloro-N-methylphenylsulfonamido)cyclohexyloxy)-N-((4-((dimethylamino)(phenyl)methyl)cyclohexyl)methyl)acetamide] | 2 | 51 |
| CN(C)C(c1cccs1)C1CCC(CNC(=O)COCCN(C)S(=O)(=O)c2cccc(C(F)(F)F)c2)CC1 (centres unmarked) [Example 92, N-((4-((dimethylamino)(thiophen-2-yl)methyl)cyclohexyl)methyl)-2-(2-(N-methyl-3-(trifluoromethyl)phenylsulfonamido)ethoxy)acetamide] | 1 | 31 |
| COc1cc(C)c(S(=O)(=O)N2CCC(OCC(=O)NCC3CCC(C(c4cccs4)N(C)C)CC3)C2)c(C)c1C (centres unmarked) [Example 58, N-((4-((dimethylamino)(thiophen-2-yl)methyl)cyclohexyl)methyl)-2-(1-(4-methoxy-2,3,6-trimethylphenylsulfonyl)pyrrolidin-3-yloxy)acetamide] | 5 | 52 |
| Cc1cc(C)c(S(=O)(=O)N2CCC(OCC(=O)NCCC3CCC(C(c4cccs4)N(C)C)CC3)C2)c(C)c1 (centres unmarked) [Example 71, N-(2-(4-((dimethylamino)(thiophen-2-yl)methyl)cyclohexyl)ethyl)-2-(1-(mesitylsulfonyl)pyrrolidin-3-yloxy)acetamide] | 54 | 84 |
| COc1ccc(S(=O)(=O)N2Cc3ccccc3CC2COCC(=O)NC2CCC(C(c3ccccc3)N(C)C)CC2)cc1 (centres unmarked) [Example 38, N-(4-((dimethylamino)(phenyl)methyl)cyclohexyl)-2-((2-(4-methoxyphenylsulfonyl)-1,2,3,4-tetrahydroisoquinolin-3-yl)methoxy)acetamide] | 46 | 45 |
| CN(C)C(c1ccccc1)C1CCC(CNC(=O)COC2CCN(S(=O)(=O)c3ccc(Cl)cc3)C2)CC1 (centres unmarked) [Example 81, 2-(1-(4-chlorophenylsulfonyl)pyrrolidin-3-yloxy)-N-((4-((dimethylamino)(phenyl)methyl)cyclohexyl)methyl)acetamide] | 5 | -10 |
| COc1cc(C)c(S(=O)(=O)N(C)CCOCC(=O)NCC2CCC(C(c3cccs3)N(C)C)CC2)c(C)c1C (centres unmarked) [Example 35, N-((4-((dimethylamino)(thiophen-2-yl)methyl)cyclohexyl)methyl)-2-(2-(4-methoxy-N,2,3,6-tetramethylphenylsulfonamido)ethoxy)acetamide] | 0 | 50 |
| COc1ccc(S(=O)(=O)N2Cc3ccccc3CC2COCC(=O)NC2CCC(C(c3cccs3)N(C)C)CC2)cc1 (centres unmarked) [Example 47, N-(4-((dimethylamino)(thiophen-2-yl)methyl)cyclohexyl)-2-((2-(4-methoxyphenylsulfonyl)-1,2,3,4-tetrahydroisoquinolin-3-yl)methoxy)acetamide] | 36 | 24 |
| CN(C)C(c1cccs1)C1CCC(CCNC(=O)COCCN(C)S(=O)(=O)c2ccc(OC(F)(F)F)cc2)CC1 (centres unmarked) [Example 65, N-(2-(4-((dimethylamino)(thiophen-2-yl)methyl)cyclohexyl)ethyl)-2-(2-(N-methyl-4-(trifluoromethoxy)phenylsulfonamido)ethoxy)acetamide] | 18 | 12 |
| COc1cc(C)c(S(=O)(=O)N2CCN(CCOCC(=O)NC3CCC(C(c4cccc(F)c4)N(C)C)CC3)CC2)c(C)c1C (centres unmarked) [Example 76, N-(4-((dimethylamino)(3-fluorophenyl)methyl)cyclohexyl)-2-(2-(4-(4-methoxy-2,3,6-trimethylphenylsulfonyl)piperazin-1-yl)ethoxy)acetamide] | -7 | 52 |
| COc1cc(C)c(S(=O)(=O)N2CCN(CCOCC(=O)NCC3CCC(C(c4ccccc4)N(C)C)CC3)CC2)c(C)c1C (centres unmarked) [Example 61, N-((4-((dimethylamino)(phenyl)methyl)cyclohexyl)methyl)-2-(2-(4-(4-methoxy-2,3,6-trimethylphenylsulfonyl)piperazin-1-yl)ethoxy)acetamide] | 25 | 63 |
| CN(C)C(c1cccc(F)c1)C1CCC(CCNC(=O)COCCN(C)S(=O)(=O)c2c(Cl)cccc2Cl)CC1 (centres unmarked) [Example 41, 2-(2-(2,6-dichloro-N-methylphenylsulfonamido)ethoxy)-N-(2-(4-((dimethylamino)(3-fluorophenyl)methyl)cyclohexyl)ethyl)acetamide] | 54 | 91 |
| CN(C)C(c1cccs1)C1CCC(CNC(=O)COCCN(C)S(=O)(=O)c2ccc(OC(F)(F)F)cc2)CC1 (centres unmarked) [Example 93, N-((4-((dimethylamino)(thiophen-2-yl)methyl)cyclohexyl)methyl)-2-(2-(N-methyl-4-(trifluoromethoxy)phenylsulfonamido)ethoxy)acetamide] | 6 | -2 |
| COc1ccc(S(=O)(=O)N2CCCC2COCC(=O)NCCC2CCC(C(c3cccs3)N(C)C)CC2)cc1 (centres unmarked) [Example 77, N-(2-(4-((dimethylamino)(thiophen-2-yl)methyl)cyclohexyl)ethyl)-2-((1-(4-methoxyphenylsulfonyl)pyrrolidin-2-yl)methoxy)acetamide] | 44 | 41 |
| CN(C)C(c1cccc(F)c1)C1CCC(CNC(=O)COCCN(C)S(=O)(=O)c2ccc(Cl)cc2Cl)CC1 (centres unmarked) [Example 70, 2-(2-(2,4-dichloro-N-methylphenylsulfonamido)ethoxy)-N-((4-((dimethylamino)(3-fluorophenyl)methyl)cyclohexyl)methyl)acetamide] | 31 | 98 |
| COc1ccc(S(=O)(=O)N2CCCCC2CCOCC(=O)NCC2CCC(C(c3ccccc3)N(C)C)CC2)cc1 (centres unmarked) [Example 89, N-((4-((dimethylamino)(phenyl)methyl)cyclohexyl)methyl)-2-(2-(1-(4-methoxyphenylsulfonyl)piperidin-2-yl)ethoxy)acetamide] | 50 | 42 |
| Cc1cc(C)c(S(=O)(=O)N2CCC(OCC(=O)NC3CCC(C(c4ccccc4)N(C)C)CC3)C2)c(C)c1 (centres unmarked) [Example 64, N-(4-((dimethylamino)(phenyl)methyl)cyclohexyl)-2-(1-(mesitylsulfonyl)pyrrolidin-3-yloxy)acetamide] | 16 | 60 |
| CN(C)C(c1cccc(F)c1)C1CCC(CNC(=O)COCC2CCCCN2S(=O)(=O)c2ccc(Cl)c(Cl)c2)CC1 (centres unmarked) [Example 87, 2-((1-(3,4-dichlorophenylsulfonyl)piperidin-2-yl)methoxy)-N-((4-((dimethylamino)(3-fluorophenyl)methyl)cyclohexyl)methyl)acetamide] | 9 | 57 |
| CN(C)C(c1cccs1)C1CCC(CCNC(=O)COC2CCN(S(=O)(=O)c3ccc(Cl)cc3)C2)CC1 (centres unmarked) [Example 66, 2-(1-(4-chlorophenylsulfonyl)pyrrolidin-3-yloxy)-N-(2-(4-((dimethylamino)(thiophen-2-yl)methyl)cyclohexyl)ethyl)acetamide] | 30 | -1 |
| COc1ccc(S(=O)(=O)N2CCCCC2CCOCC(=O)NCC2CCC(C(c3cccs3)N(C)C)CC2)cc1 (centres unmarked) [Example 90, N-((4-((dimethylamino)(thiophen-2-yl)methyl)cyclohexyl)methyl)-2-(2-(1-(4-methoxyphenylsulfonyl)piperidin-2-yl)ethoxy)acetamide] | 37 | 49 |
| COc1ccc(S(=O)(=O)N2Cc3ccccc3CC2COCC(=O)NCCC2CCC(C(c3cccs3)N(C)C)CC2)cc1 (centres unmarked) [Example 48, N-(2-(4-((dimethylamino)(thiophen-2-yl)methyl)cyclohexyl)ethyl)-2-((2-(4-methoxyphenylsulfonyl)-1,2,3,4-tetrahydroisoquinolin-3-yl)methoxy)acetamide] | 22 | 33 |
